Assay results as given in ChEMBL document CHEMBL1139487, “Discovery of corticotropin releasing factor 2 receptor selective sauvagine analogues for treatment of skeletal muscle atrophy” (J Med Chem, 2005).
Square brackets hold non-standard residues; d marks the D form. Peptide text beside a SMILES is read from it. 1Nal = N[C@@H](Cc1cccc2ccccc12)C(=O)O; pGlu = O=C1CC[C@@H](C(=O)O)N1

Experiments:
[1] = biological target: T1, Corticotropin-releasing factor receptor 1 (Mus musculus, UniProt P35347); assay: In vitro effective concentration for mouse corticotropin releasing factor 1 receptor
T1 sequence (P35347 whole entry): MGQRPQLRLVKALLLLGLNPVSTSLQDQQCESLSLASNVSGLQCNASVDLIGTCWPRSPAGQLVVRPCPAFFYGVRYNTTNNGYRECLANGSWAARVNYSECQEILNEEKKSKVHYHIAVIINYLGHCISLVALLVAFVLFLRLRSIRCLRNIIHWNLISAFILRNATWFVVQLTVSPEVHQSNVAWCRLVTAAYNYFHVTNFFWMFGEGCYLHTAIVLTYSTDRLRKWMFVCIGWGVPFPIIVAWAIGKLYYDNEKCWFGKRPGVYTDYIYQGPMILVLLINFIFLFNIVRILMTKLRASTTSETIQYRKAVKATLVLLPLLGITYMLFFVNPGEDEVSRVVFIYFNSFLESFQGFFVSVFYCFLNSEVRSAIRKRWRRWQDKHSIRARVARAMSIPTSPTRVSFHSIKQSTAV

[2] = biological target: Corticotropin-releasing factor receptor 2 (Mus musculus, UniProt Q60748); assay: In vitro effective concentration for mouse corticotropin releasing factor 2 receptor
Sequence of Corticotropin-releasing factor receptor 2 (Q60748 whole entry): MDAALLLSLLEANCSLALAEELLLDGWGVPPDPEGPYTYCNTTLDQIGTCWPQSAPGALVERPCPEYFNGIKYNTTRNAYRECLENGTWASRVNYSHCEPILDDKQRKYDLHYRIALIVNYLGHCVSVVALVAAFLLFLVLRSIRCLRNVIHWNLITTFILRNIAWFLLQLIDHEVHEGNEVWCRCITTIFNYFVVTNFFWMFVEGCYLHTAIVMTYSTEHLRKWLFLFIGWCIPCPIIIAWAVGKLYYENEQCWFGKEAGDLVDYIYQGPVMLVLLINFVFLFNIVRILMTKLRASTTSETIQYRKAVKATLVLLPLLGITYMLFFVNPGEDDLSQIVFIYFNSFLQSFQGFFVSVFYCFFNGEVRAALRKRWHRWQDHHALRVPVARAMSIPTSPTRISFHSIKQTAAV

Compound | EC50 [1] [µM] | EC50 [2] [µM]
CC[C@H](C)[C@H](NC(=O)[C@@H](NC(=O)[C@H](CC(=O)O)NC(=O)[C@H](CC(C)C)NC(=O)[C@H](CC(C)C)NC(=O)[C@H](CC(C)C)NC(=O)[C@H](CCCNC(=N)N)NC(=O)[C@H](CC(N)=O)NC(=O)[C@H](CC(N)=O)NC(=O)[C@H](C)NC(=O)[C@H](C)NC(=O)[C@H](CCC(N)=O)NC(=O)[C@H](CCC(N)=O)NC(=O)[C@H](CCCCN)NC(=O)[C@H](CCC(=O)O)NC(=O)[C@H](CCCCN)NC(=O)[C@H](CCC(=O)O)NC(=O)[C@H](CCC(N)=O)NC(=O)[C@H](CCCCN)NC(=O)[C@H](CCC(=O)O)NC(=O)[C@@H](NC(=O)[C@H](CCC(=O)O)NC(=O)[C@@H](NC(=O)[C@H](CCSC)NC(=O)[C@H](CCCCN)NC(=O)[C@H](CCCNC(=N)N)NC(=O)[C@H](CC(C)C)NC(=O)[C@H](CC(C)C)NC(=O)[C@H](Cc1ccc(O)cc1)NC(=O)[C@@H](NC(=O)[C@@H]1CCCN1C(=O)[C@H](CC(C)C)NC(=O)[C@H](CC(=O)O)NC(=O)[C@@H](NC(=O)[C@H](CO)NC(=O)[C@@H](NC(=O)[C@@H]1CCCN1C(=O)[C@@H]1CCCN1C(=O)CNC(=O)[C@@H]1CCC(=O)N1)[C@@H](C)CC)[C@@H](C)CC)[C@@H](C)CC)[C@@H](C)CC)[C@@H](C)CC)[C@@H](C)O)C(=O)O | > 1 | 0.0223
CC[C@H](C)[C@H](NC(=O)[C@@H](NC(=O)[C@H](CC(=O)O)NC(=O)[C@H](CC(C)C)NC(=O)[C@H](CC(C)C)NC(=O)[C@H](CC(C)C)NC(=O)[C@H](CCCNC(=N)N)NC(=O)[C@H](CC(N)=O)NC(=O)[C@H](CC(N)=O)NC(=O)[C@H](C)NC(=O)[C@H](C)NC(=O)[C@H](CCC(N)=O)NC(=O)[C@H](CCC(N)=O)NC(=O)[C@H](CCCCN)NC(=O)[C@H](CCC(=O)O)NC(=O)[C@H](CCCCN)NC(=O)[C@H](CCC(=O)O)NC(=O)[C@H](CCC(N)=O)NC(=O)[C@H](CCCCN)NC(=O)[C@H](CCC(=O)O)NC(=O)[C@@H](NC(=O)[C@H](CCC(=O)O)NC(=O)[C@@H](NC(=O)[C@H](CCSC)NC(=O)[C@H](CCCCN)NC(=O)[C@H](CCCNC(=N)N)NC(=O)[C@H](CC(C)C)NC(=O)[C@H](CC(C)C)NC(=O)[C@H](Cc1cccc2ccccc12)NC(=O)[C@H](CCC(N)=O)NC(=O)[C@@H]1CCCN1C(=O)[C@H](CC(C)C)NC(=O)[C@H](CC(=O)O)NC(=O)[C@@H](NC(=O)[C@H](CO)NC(=O)[C@@H](NC(=O)[C@@H]1CCCN1C(=O)[C@@H]1CCCN1C(=O)CNC(=O)[C@@H]1CCC(=O)N1)[C@@H](C)CC)[C@@H](C)CC)[C@@H](C)CC)[C@@H](C)CC)[C@@H](C)O)C(=O)O ([pGlu]GPPISIDLPQ[1Nal]LLRKMIEIEKQEKEKQQAANNRLLLDTI-OH) | 0.367 | 0.0141
CC[C@H](C)[C@H](NC(=O)[C@@H](NC(=O)[C@H](CC(=O)O)NC(=O)[C@H](CC(C)C)NC(=O)[C@H](CC(C)C)NC(=O)[C@H](CC(C)C)NC(=O)[C@H](CCCNC(=N)N)NC(=O)[C@H](CC(N)=O)NC(=O)[C@H](CC(N)=O)NC(=O)[C@H](C)NC(=O)[C@H](C)NC(=O)[C@H](CCC(N)=O)NC(=O)[C@H](CCC(N)=O)NC(=O)[C@H](CCCCN)NC(=O)[C@H](CCC(=O)O)NC(=O)[C@H](CCCCN)NC(=O)[C@H](CCC(=O)O)NC(=O)[C@H](CCC(N)=O)NC(=O)[C@H](CCCCN)NC(=O)[C@H](CCC(=O)O)NC(=O)[C@@H](NC(=O)[C@H](CCC(=O)O)NC(=O)[C@@H](NC(=O)[C@H](CCSC)NC(=O)[C@H](CCCCN)NC(=O)[C@H](CCCNC(=N)N)NC(=O)[C@H](CC(C)C)NC(=O)[C@H](CC(C)C)NC(=O)[C@H](CCC(N)=O)NC(=O)[C@H](CCC(N)=O)NC(=O)[C@@H]1CCCN1C(=O)[C@H](CC(C)C)NC(=O)[C@H](CC(=O)O)NC(=O)[C@@H](NC(=O)[C@H](CO)NC(=O)[C@@H](NC(=O)[C@@H]1CCCN1C(=O)[C@@H]1CCCN1C(=O)CNC(=O)[C@@H]1CCC(=O)N1)[C@@H](C)CC)[C@@H](C)CC)[C@@H](C)CC)[C@@H](C)CC)[C@@H](C)O)C(=O)O | > 1 | 0.0299
CC[C@H](C)[C@H](NC(=O)[C@@H](NC(=O)[C@H](CC(=O)O)NC(=O)[C@H](CC(C)C)NC(=O)[C@H](CC(C)C)NC(=O)[C@H](CC(C)C)NC(=O)[C@H](CCCNC(=N)N)NC(=O)[C@H](CC(N)=O)NC(=O)[C@H](CC(N)=O)NC(=O)[C@H](C)NC(=O)[C@H](C)NC(=O)[C@H](CCC(N)=O)NC(=O)[C@H](CCC(N)=O)NC(=O)[C@H](CCCCN)NC(=O)[C@H](CCC(=O)O)NC(=O)[C@H](CCCCN)NC(=O)[C@H](CCC(=O)O)NC(=O)[C@H](CCC(N)=O)NC(=O)[C@H](CCCCN)NC(=O)[C@H](CCC(=O)O)NC(=O)[C@@H](NC(=O)[C@H](CCC(=O)O)NC(=O)[C@@H](NC(=O)[C@H](CCSC)NC(=O)[C@H](CCCCN)NC(=O)[C@H](CCCNC(=N)N)NC(=O)[C@H](CC(C)C)NC(=O)[C@H](CC(C)C)NC(=O)[C@H](CC(C)C)NC(=O)[C@H](Cc1ccc(O)cc1)NC(=O)[C@@H]1CCCN1C(=O)[C@H](CC(C)C)NC(=O)[C@H](CC(=O)O)NC(=O)[C@@H](NC(=O)[C@H](CO)NC(=O)[C@@H](NC(=O)[C@@H]1CCCN1C(=O)[C@@H]1CCCN1C(=O)CNC(=O)[C@@H]1CCC(=O)N1)[C@@H](C)CC)[C@@H](C)CC)[C@@H](C)CC)[C@@H](C)CC)[C@@H](C)O)C(=O)O | 0.0762 | 0.0052
H-IVLSLDVPIGLLQILLEQARARAAREQATTNARILARV-OH [HUMAN UROCORTIN 2] | > 1 | 0.0043
CC[C@H](C)[C@H](NC(=O)[C@@H](NC(=O)[C@H](CC(=O)O)NC(=O)[C@H](CC(C)C)NC(=O)[C@H](CC(C)C)NC(=O)[C@H](CC(C)C)NC(=O)[C@H](CCCNC(=N)N)NC(=O)[C@H](CC(N)=O)NC(=O)[C@H](CC(N)=O)NC(=O)[C@H](C)NC(=O)[C@H](C)NC(=O)[C@H](CCC(N)=O)NC(=O)[C@H](CCC(N)=O)NC(=O)[C@H](CCCCN)NC(=O)[C@H](CCC(=O)O)NC(=O)[C@H](CCCCN)NC(=O)[C@H](CCC(=O)O)NC(=O)[C@H](CCC(N)=O)NC(=O)[C@H](CCCCN)NC(=O)[C@H](CCC(=O)O)NC(=O)[C@@H](NC(=O)[C@H](CCC(=O)O)NC(=O)[C@@H](NC(=O)[C@H](CCSC)NC(=O)[C@H](CCCCN)NC(=O)[C@H](CCCNC(=N)N)NC(=O)[C@H](CC(C)C)NC(=O)[C@H](CC(C)C)NC(=O)[C@H](Cc1ccc(O)cc1)NC(=O)[C@H](CC(C)C)NC(=O)[C@@H]1CCCN1C(=O)[C@H](CC(C)C)NC(=O)[C@H](CC(=O)O)NC(=O)[C@@H](NC(=O)[C@H](CO)NC(=O)[C@@H](NC(=O)[C@@H]1CCCN1C(=O)[C@@H]1CCCN1C(=O)CNC(=O)[C@@H]1CCC(=O)N1)[C@@H](C)CC)[C@@H](C)CC)[C@@H](C)CC)[C@@H](C)CC)[C@@H](C)O)C(=O)O ([pGlu]GPPISIDLPLYLLRKMIEIEKQEKEKQQAANNRLLLDTI-OH) | 0.0679 | 0.0043
CC[C@H](C)[C@H](NC(=O)[C@@H](NC(=O)[C@H](CC(=O)O)NC(=O)[C@H](CC(C)C)NC(=O)[C@H](CC(C)C)NC(=O)[C@H](CC(C)C)NC(=O)[C@H](CCCNC(=N)N)NC(=O)[C@H](CC(N)=O)NC(=O)[C@H](CC(N)=O)NC(=O)[C@H](C)NC(=O)[C@H](C)NC(=O)[C@H](CCC(N)=O)NC(=O)[C@H](CCC(N)=O)NC(=O)[C@H](CCCCN)NC(=O)[C@H](CCC(=O)O)NC(=O)[C@H](CCCCN)NC(=O)[C@H](CCC(=O)O)NC(=O)[C@H](CCC(N)=O)NC(=O)[C@H](CCCCN)NC(=O)[C@H](CCC(=O)O)NC(=O)[C@@H](NC(=O)[C@H](CCC(=O)O)NC(=O)[C@@H](NC(=O)[C@H](CCSC)NC(=O)[C@H](CCCCN)NC(=O)[C@H](CCCNC(=N)N)NC(=O)[C@H](CC(C)C)NC(=O)[C@H](CC(C)C)NC(=O)[C@H](CCC(N)=O)NC(=O)[C@H](Cc1ccccc1)NC(=O)[C@@H]1CCCN1C(=O)[C@H](CC(C)C)NC(=O)[C@H](CC(=O)O)NC(=O)[C@@H](NC(=O)[C@H](CO)NC(=O)[C@@H](NC(=O)[C@@H]1CCCN1C(=O)[C@@H]1CCCN1C(=O)CNC(=O)[C@@H]1CCC(=O)N1)[C@@H](C)CC)[C@@H](C)CC)[C@@H](C)CC)[C@@H](C)CC)[C@@H](C)O)C(=O)O | 0.112 | 0.0018
CC[C@H](C)[C@H](NC(=O)[C@@H](NC(=O)[C@H](CC(=O)O)NC(=O)[C@H](CC(C)C)NC(=O)[C@H](CC(C)C)NC(=O)[C@H](CC(C)C)NC(=O)[C@H](CCCNC(=N)N)NC(=O)[C@H](CC(N)=O)NC(=O)[C@H](CC(N)=O)NC(=O)[C@H](C)NC(=O)[C@H](C)NC(=O)[C@H](CCC(N)=O)NC(=O)[C@H](CCC(N)=O)NC(=O)[C@H](CCCCN)NC(=O)[C@H](CCC(=O)O)NC(=O)[C@H](CCCCN)NC(=O)[C@H](CCC(=O)O)NC(=O)[C@H](CCC(N)=O)NC(=O)[C@H](CCCCN)NC(=O)[C@H](CCC(=O)O)NC(=O)[C@@H](NC(=O)[C@H](CCC(=O)O)NC(=O)[C@@H](NC(=O)[C@H](CCSC)NC(=O)[C@H](CCCCN)NC(=O)[C@H](CCCNC(=N)N)NC(=O)[C@H](CC(C)C)NC(=O)[C@H](CC(C)C)NC(=O)[C@@H](NC(=O)[C@H](CCC(N)=O)NC(=O)[C@@H]1CCCN1C(=O)[C@H](CC(C)C)NC(=O)[C@H](CC(=O)O)NC(=O)[C@@H](NC(=O)[C@H](CO)NC(=O)[C@@H](NC(=O)[C@@H]1CCCN1C(=O)[C@@H]1CCCN1C(=O)CNC(=O)[C@@H]1CCC(=O)N1)[C@@H](C)CC)[C@@H](C)CC)[C@@H](C)CC)[C@@H](C)CC)[C@@H](C)CC)[C@@H](C)O)C(=O)O | 0.707 | 0.0085
